Results taken from patent US9101638B2, “Boronic acid derivatives and therapeutic uses thereof” (Rempex Pharmaceuticals, Inc., priority 2013, dated 2015).
pIC50, pKi: −log10 of the molar value.

Experiments:
KP1005 (CTX-M-14) = test: Potentiation of aztreonam, strain KP1005; type: cell-based
KP1009 (CTX-M-15) [1] = test: Potentiation of aztreonam, strain KP1009; type: cell-based
ec308 (SHV-5) [2] = test: Potentiation of aztreonam, strain ec308; type: cell-based; settings: minimum BLI concentration inhibiting growth with 4 μg/mL aztreonam
ec302 (TEM-10) [3] = test: Potentiation of aztreonam, strain ec302; type: cell-based
KP1004 (K-2) = test: Potentiation of aztreonam, strain KP1004; type: cell-based; settings: minimum BLI concentration inhibiting growth with 4 μg/mL aztreonam
ECL1002 = test: Potentiation of aztreonam, strain ECL1002; type: cell-based; settings: minimum BLI concentration inhibiting growth with 4 μg/mL aztreonam
EC1010 (CMY-6) [4] = test: Potentiation of aztreonam, strain EC1010; type: cell-based
ec308 (SHV-5) [5] = test: Potentiation of tigemonam, strain ec308; type: cell-based; settings: minimum BLI concentration inhibiting growth with 4 μg/mL tigemonam
ec302 (TEM-10) [6] = test: Potentiation of tigemonam, strain ec302; type: cell-based
EC1010 (CMY-6) [7] = type: cell-based
CTX-M-14 = CTX-M-14 (Escherichia coli, UniProt Q9L5C7); test: Inhibition of nitrocefin cleavage by purified CTX-M-14; type: biochemical; settings: nitrocefin reporter substrate, purified enzyme; read-out: Ki (CTX-M-14, NCF)
Method: (§1) Purified enzymes were mixed with various concentrations of inhibitors in reaction buffer and incubated for 10 min at room temperature. Nitrocefin was added and substrate cleavage profiles were recorded at 490 nm every 10 sec for 10 min.

SHV-12 = SHV-12 (Klebsiella pneumoniae, UniProt P0AD64, E235K/G234S/L31Q); test: Inhibition of nitrocefin cleavage by purified SHV-12; type: biochemical; settings: nitrocefin reporter substrate, purified enzyme; read-out: Ki (SHV-12, NCF)
Method: as §1

KPC-2 = KPC-2 (Klebsiella pneumoniae, UniProt Q9F663); test: Inhibition of nitrocefin cleavage by purified KPC-2; type: biochemical; settings: nitrocefin reporter substrate, purified enzyme; read-out: Ki (KPC-2, NCF)
Method: as §1

PAM1032/KPC-2 = test: Biapenem potentiation in PAM1032/KPC-2 (MexAB-OprM overexpressed); type: cell-based, Pseudomonas aeruginosa; settings: BLI potency to decrease biapenem MIC 64-fold, 32 to 0.5 μg/ml; efflux proficient strain
Method: (§2) Efflux of BLIs from Pseudomonas aeruginosa by the MexAB-OprM efflux pump was also evaluated. […] Due to expression of KPC-2 both strains became resistant to biapenem. […] Potency of BLIs to potentiate biapenem in these strains was determined. […] The ratio of MPC64 values for each BLI in PAM1032/KPC-2 (efflux proficient) and PAM1154/KPC-2 (efflux deficient) was determined to generate the Efflux Index (EI).

PAM1154/KPC-2 = test: Biapenem potentiation in PAM1154/KPC-2 (MexAB-OprM lacking); type: cell-based, Pseudomonas aeruginosa
Method: as §2

CathepsinA = target: T1, CathepsinA (Homo sapiens, UniProt P10619); test: Serine protease inhibition: cathepsin A; type: biochemical, mammalian; settings: Table 8B; read-out: IC50 CathepsinA
T1 construct: purchased R&D Systems 1049-SE
T1 sequence (P10619 29-480): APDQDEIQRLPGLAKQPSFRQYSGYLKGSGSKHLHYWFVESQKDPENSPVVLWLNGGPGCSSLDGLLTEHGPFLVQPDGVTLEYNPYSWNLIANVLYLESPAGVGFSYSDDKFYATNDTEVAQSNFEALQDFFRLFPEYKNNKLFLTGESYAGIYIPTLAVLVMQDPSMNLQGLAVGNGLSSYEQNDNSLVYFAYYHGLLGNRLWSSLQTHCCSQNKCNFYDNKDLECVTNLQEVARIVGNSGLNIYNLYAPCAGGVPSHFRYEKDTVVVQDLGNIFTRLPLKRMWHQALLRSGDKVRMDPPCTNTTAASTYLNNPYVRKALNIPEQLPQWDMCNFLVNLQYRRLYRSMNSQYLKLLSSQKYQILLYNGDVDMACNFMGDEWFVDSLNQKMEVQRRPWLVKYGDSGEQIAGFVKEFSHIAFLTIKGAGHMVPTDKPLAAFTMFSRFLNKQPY
Method: (§3) The effect of selected BLIs on the enzymatic activity of some common mammalian serine proteases was evaluated.
(§4) 50 μl of the diluted enzyme was mixed with 50 μl of inhibitor at various concentrations and 50 μl of corresponding buffer (Table 7). Reaction mixtures were incubated for 10 min at 37° C. Subsequently, 50 μl of corresponding substrate (Table 7) was added and absorbance or fluorescence was monitored for 30 min on SpectraMax M2 plate reader (Molecular Devices). 4-(2-Aminoethyl)benzenesulfonyl fluoride hydrochloride (AEBSF) and leupeptin were used as positive controls. Rates of reaction were calculated and presented relative to “no treatment” control.

CathepsinG = target: T2, CathepsinG (Homo sapiens, UniProt P08311); test: Serine protease inhibition: cathepsin G; type: biochemical, mammalian; settings: Table 8B
T2 construct: purchased EMD Millipore 219373
T2 sequence (P08311 21-244): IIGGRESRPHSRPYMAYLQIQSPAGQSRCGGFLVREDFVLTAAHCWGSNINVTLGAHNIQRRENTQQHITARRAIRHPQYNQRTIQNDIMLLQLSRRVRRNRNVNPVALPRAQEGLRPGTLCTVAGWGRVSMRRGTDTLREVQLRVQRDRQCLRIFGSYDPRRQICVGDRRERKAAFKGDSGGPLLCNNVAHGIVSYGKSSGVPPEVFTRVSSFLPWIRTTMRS
Method: as §3, §4

KP1009 (CTX-M-15) [8] = test: Potentiation of tigemonam, strain KP1009; settings: minimum BLI concentration inhibiting growth with 4 μg/mL tigemonam
OXA-48 = OXA-48 (Klebsiella pneumoniae, UniProt Q6XEC0); test: Inhibition of nitrocefin cleavage by purified OXA-48; type: biochemical; settings: nitrocefin reporter substrate, purified enzyme; read-out: Ki (OXA-48, NCF)
Method: as §1

Chain of SHV-12 (P0AD64 22-286 L31Q/G234S/E235K): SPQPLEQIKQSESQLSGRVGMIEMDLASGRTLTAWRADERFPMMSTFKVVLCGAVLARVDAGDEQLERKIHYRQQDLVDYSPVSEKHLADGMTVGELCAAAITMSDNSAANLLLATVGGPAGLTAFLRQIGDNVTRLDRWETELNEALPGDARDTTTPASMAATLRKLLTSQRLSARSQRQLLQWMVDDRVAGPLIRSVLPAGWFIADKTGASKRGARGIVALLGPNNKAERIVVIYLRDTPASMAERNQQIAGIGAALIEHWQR
Chain of CTX-M-14 (Q9L5C7 entry or part of it): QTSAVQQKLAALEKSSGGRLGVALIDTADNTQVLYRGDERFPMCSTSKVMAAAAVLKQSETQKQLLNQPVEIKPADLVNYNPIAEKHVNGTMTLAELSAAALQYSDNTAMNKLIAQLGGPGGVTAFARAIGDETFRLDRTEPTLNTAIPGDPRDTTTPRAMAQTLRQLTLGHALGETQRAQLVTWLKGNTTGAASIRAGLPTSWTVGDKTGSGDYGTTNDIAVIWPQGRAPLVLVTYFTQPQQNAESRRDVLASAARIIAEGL
Chain of KPC-2 (Q9F663 25-293, looked up, species assumed): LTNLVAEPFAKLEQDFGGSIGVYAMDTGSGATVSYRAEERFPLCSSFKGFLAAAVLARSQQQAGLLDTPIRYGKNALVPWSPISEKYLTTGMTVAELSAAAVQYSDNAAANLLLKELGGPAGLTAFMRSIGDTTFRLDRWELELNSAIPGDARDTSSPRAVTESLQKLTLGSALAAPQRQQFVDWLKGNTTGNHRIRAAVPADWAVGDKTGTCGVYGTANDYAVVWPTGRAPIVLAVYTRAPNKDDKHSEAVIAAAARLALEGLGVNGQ
Chain of OXA-48 (Q6XEC0 23-265 limits assumed): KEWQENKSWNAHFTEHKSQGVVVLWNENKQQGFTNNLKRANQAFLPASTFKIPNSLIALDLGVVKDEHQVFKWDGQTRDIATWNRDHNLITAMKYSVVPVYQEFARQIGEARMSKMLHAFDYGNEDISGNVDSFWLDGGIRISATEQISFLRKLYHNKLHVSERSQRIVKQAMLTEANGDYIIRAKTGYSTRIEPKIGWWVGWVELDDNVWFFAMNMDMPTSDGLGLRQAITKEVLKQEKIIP

Structure (SMILES)	AZT MPC4 CTX-M-14 KP1005 (KP1005 (CTX-M-14))	AZT MPC4 CTX-M-15 KP1009 (KP1009 (CTX-M-15) [1])	AZT MPC4 SHV-5 ec308 (ec308 (SHV-5) [2])	AZT MPC4 TEM-10 ec302 (ec302 (TEM-10) [3])	AZT MPC4 K-2 KP1004 (KP1004 (K-2))	AZT MPC4 ECL1002 (ECL1002)	AZT MPC4 CMY-6 EC1010 (EC1010 (CMY-6) [4])	TIG MPC4 SHV-5 ec308 (ec308 (SHV-5) [5])	TIG MPC4 TEM-10 ec302 (ec302 (TEM-10) [6])	TIG MPC4 CMY-6 EC1010 (EC1010 (CMY-6) [7])	pKi (CTX-M-14)	pKi (SHV-12)	pKi (KPC-2)	PAM1032/KPC-2 Biapenem MPC64 (PAM1032/KPC-2)	PAM1154/KPC-2 Biapenem MPC64 (PAM1154/KPC-2)	pIC50 (CathepsinA)	pIC50 (CathepsinG)	TIG MPC4 CTX-M-15 KP1009 (KP1009 (CTX-M-15) [8])	pKi (OXA-48)
O=C(N[C@H]1Cc2cccc(C(=O)O)c2OB1O)c1cncc(F)c1 [Compound 14, (R)-3-(5-fluoronicotinamido)-2-hydroxy-3,4-dihydro-2H-benzo[e][1,2]oxaborinine-8-carboxylic acid]	Y (key: X = MIC of less than 1 μg/mL; Y = MIC of 1 μg/mL to 10 μg/mL; Z = MIC of greater than 10 μg/mL)	Y (key: X = MIC of less than 1 μg/mL; Y = MIC of 1 μg/mL to 10 μg/mL; Z = MIC of greater than 10 μg/mL)	Y (Y = MIC of 1 μg/mL to 10 μg/mL)	Y (key: X = MIC of less than 1 μg/mL; Y = MIC of 1 μg/mL to 10 μg/mL; Z = MIC of greater than 10 μg/mL)	Y (Y = MIC of 1 μg/mL to 10 μg/mL)	Y (Y = MIC of 1 μg/mL to 10 μg/mL)	Y (key: X = MIC of less than 1 μg/mL; Y = MIC of 1 μg/mL to 10 μg/mL; Z = MIC of greater than 10 μg/mL)	Y (Y = MIC of 1 μg/mL to 10 μg/mL)	Y (key: X = MIC of less than 1 μg/mL; Y = MIC of 1 μg/mL to 10 μg/mL; Z = MIC of greater than 10 μg/mL)	Y (key: X = MIC of less than 1 μg/mL; Y = MIC of 1 μg/mL to 10 μg/mL; Z = MIC of greater than 10 μg/mL)	> 9.00	> 9.00	< 8.00	Z (Z Greater than 40)	X (key: X = Less than 10; Y = 10 to 40; Z Greater than 40)	3.30 to 4.82	3.30 to 4.82	Y (Y = MIC of 1 μg/mL to 10 μg/mL)	–
O=C(N[C@H]1Cc2cccc(C(=O)O)c2OB1O)c1cncs1 [Compound 15, (R)-2-hydroxy-3-(thiazole-5-carboxamido)-3,4-dihydro-2H-benzo[e][1,2]oxaborinine-8-carboxylic acid]	Y (key: X = MIC of less than 1 μg/mL; Y = MIC of 1 μg/mL to 10 μg/mL; Z = MIC of greater than 10 μg/mL)	Y (key: X = MIC of less than 1 μg/mL; Y = MIC of 1 μg/mL to 10 μg/mL; Z = MIC of greater than 10 μg/mL)	X (X = MIC of less than 1 μg/mL)	X (key: X = MIC of less than 1 μg/mL; Y = MIC of 1 μg/mL to 10 μg/mL; Z = MIC of greater than 10 μg/mL)	Y (Y = MIC of 1 μg/mL to 10 μg/mL)	Y (Y = MIC of 1 μg/mL to 10 μg/mL)	Y (key: X = MIC of less than 1 μg/mL; Y = MIC of 1 μg/mL to 10 μg/mL; Z = MIC of greater than 10 μg/mL)	Y (Y = MIC of 1 μg/mL to 10 μg/mL)	Y (key: X = MIC of less than 1 μg/mL; Y = MIC of 1 μg/mL to 10 μg/mL; Z = MIC of greater than 10 μg/mL)	Y (key: X = MIC of less than 1 μg/mL; Y = MIC of 1 μg/mL to 10 μg/mL; Z = MIC of greater than 10 μg/mL)	> 9.00	> 9.00	< 8.00	Z (Z Greater than 40)	X (key: X = Less than 10; Y = 10 to 40; Z Greater than 40)	3.30 to 4.82	3.30 to 4.82	Y (Y = MIC of 1 μg/mL to 10 μg/mL)	> 9.00
